Measurements: paper PMC12284294 (iScience, 2025)
Read-outs that look alike come from different tables or passages of the source.

Legend:
FPR1 = biological target: T1, FPR1 (Homo sapiens, UniProt P21462); type: cell-based
T1 construct: expressed in transfected cells; host or cells: HEK293T
T1 sequence (P21462 1-350): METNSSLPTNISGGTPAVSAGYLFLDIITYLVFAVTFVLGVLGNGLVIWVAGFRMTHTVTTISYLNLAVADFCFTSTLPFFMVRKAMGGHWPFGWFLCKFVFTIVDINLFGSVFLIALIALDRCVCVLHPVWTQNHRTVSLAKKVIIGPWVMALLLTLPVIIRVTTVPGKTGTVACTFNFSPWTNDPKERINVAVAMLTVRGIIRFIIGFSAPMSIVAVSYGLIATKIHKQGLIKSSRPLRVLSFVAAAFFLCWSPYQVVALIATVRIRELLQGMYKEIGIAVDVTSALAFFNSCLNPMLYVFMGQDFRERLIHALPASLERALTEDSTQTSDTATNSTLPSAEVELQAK

[1] = test system: human polymorphonuclear granulocytes (PMN; neutrophils); type: cell-based
[2] = SARS-CoV-2 omicron B.1.1.529 spike pool peptides, 10 µM, PMN, n=6

| Sequence | significant FPR1 activators (group of the spike peptide pool screening) (FPR1) | significant PMN activators (group of the spike peptide pool screening) [1, 2] | non-activators of FPR1 and PMNs: FPR1 (FPR1) | non-activators of FPR1 and PMNs: PMNs [1, 2] | non-activators of FPR1 and PMNs: PMNs [1] |
| --- | --- | --- | --- | --- | --- |
| PFFSNVTWFHVISGT | significant FPR1 activators | significant PMN activators | – | – | – |
| GNKPCNGVAGFNCYF | – | – | non-activators of FPR1 and PMNs | non-activators of FPR1 and PMNs | – |
| LLLQYGSFCTQLKRA | – | – | non-activators of FPR1 and PMNs | non-activators of FPR1 and PMNs | – |
| PPIKYFGGFNFSQIL | – | – | non-activators of FPR1 and PMNs | non-activators of FPR1 and PMNs | – |
| NGLKGTGVLTESNKK | – | – | non-activators of FPR1 and PMNs | non-activators of FPR1 and PMNs | – |
| KIYSKHTPIIVREPE | – | – | non-activators of FPR1 and PMNs | non-activators of FPR1 and PMNs | – |
| STASALGKLQDVVNH | – | – | non-activators of FPR1 and PMNs | non-activators of FPR1 and PMNs | – |
| LYNLAPFFTFKCYGV | significant FPR1 activators | significant PMN activators | – | – | – |
| ISTEIYQAGNKPCNG | – | – | non-activators of FPR1 and PMNs | non-activators of FPR1 and PMNs | – |
| PFLDHKNNKSWMESE | – | – | non-activators of FPR1 and PMNs | non-activators of FPR1 and PMNs | – |
| KQLSSKFGAISSVLN | – | – | non-activators of FPR1 and PMNs | non-activators of FPR1 and PMNs | – |
| YFGGFNFSQILPDPS | – | – | non-activators of FPR1 and PMNs | non-activators of FPR1 and PMNs | – |
| SHRRARSVASQSIIA | – | – | non-activators of FPR1 and PMNs | non-activators of FPR1 and PMNs | – |
| YGSFCTQLKRALTGI | – | – | non-activators of FPR1 and PMNs | non-activators of FPR1 and PMNs | – |
| TQTKSHRRARSVASQ | – | – | non-activators of FPR1 and PMNs | non-activators of FPR1 and PMNs | – |
| AGICASYQTQTKSHR | – | – | non-activators of FPR1 and PMNs | non-activators of FPR1 and PMNs | – |
| NVTWFHVISGTNGTK | significant FPR1 activators | significant PMN activators | – | – | – |
| DYSVLYNLAPFFTFK | significant FPR1 activators | significant PMN activators | – | – | – |
| CNGVAGFNCYFPLKS | – | – | non-activators of FPR1 and PMNs | non-activators of FPR1 and PMNs | – |
| VNHNAQALNTLVKQL | – | – | non-activators of FPR1 and PMNs | non-activators of FPR1 and PMNs | – |
| YQGVNCTEVPVAIHA | – | – | non-activators of FPR1 and PMNs | non-activators of FPR1 and PMNs | – |
| IYQAGNKPCNGVAGF | – | – | non-activators of FPR1 and PMNs | non-activators of FPR1 and PMNs | – |

| Sequence | significant FPR1 activators (group of the spike peptide pool screening) (FPR1) | significant PMN activators (group of the spike peptide pool screening) [1, 2] | non-activators of FPR1 and PMNs: FPR1 (FPR1) | non-activators of FPR1 and PMNs: PMNs [1, 2] | non-activators of FPR1 and PMNs: PMNs [1] |
| --- | --- | --- | --- | --- | --- |
| CYFPLKSYSFRPTYG | – | – | non-activators of FPR1 and PMNs | non-activators of FPR1 and PMNs | – |
| NDGVYFASIEKSNII | – | – | non-activators of FPR1 and PMNs | non-activators of FPR1 and PMNs | – |
| RFPNITNLCPFDEVF | – | – | non-activators of FPR1 and PMNs | non-activators of FPR1 and PMNs | – |
| NTLVKQLSSKFGAIS | – | – | non-activators of FPR1 and PMNs | non-activators of FPR1 and PMNs | – |
| TYGVGHQPYRVVVLS | significant FPR1 activators | significant PMN activators | – | – | – |
| NCVADYSVLYNLAPF | – | – | non-activators of FPR1 and PMNs | non-activators of FPR1 and PMNs | – |
| QTRAGCLIGAEYVNN | – | – | non-activators of FPR1 and PMNs | non-activators of FPR1 and PMNs | – |
| AGFNCYFPLKSYSFR | – | – | non-activators of FPR1 and PMNs | non-activators of FPR1 and PMNs | – |
| DFTGCVIAWNSNKLD | – | – | non-activators of FPR1 and PMNs | non-activators of FPR1 and PMNs | – |
| APFFTFKCYGVSPTK | – | – | non-activators of FPR1 and PMNs | non-activators of FPR1 and PMNs | – |
| DLFLPFFSNVTWFHV | significant FPR1 activators | significant PMN activators | – | – | – |
| KRALTGIAVEQDKNT | – | – | non-activators of FPR1 and PMNs | non-activators of FPR1 and PMNs | – |
| RQIAPGQTGNIADYN | – | – | non-activators of FPR1 and PMNs | non-activators of FPR1 and PMNs | – |
| IEKSNIIRGWIFGTT | – | – | non-activators of FPR1 and PMNs | non-activators of FPR1 and PMNs | – |
| VAVLYQGVNCTEVPV | – | – | non-activators of FPR1 and PMNs | non-activators of FPR1 and PMNs | – |
| KGLTVLPPLLTDEMI | significant FPR1 activators | – | – | – | – |
| GHQPYRVVVLSFELL | significant FPR1 activators | significant PMN activators | – | – | – |
| CPFDEVFNATRFASV | – | – | non-activators of FPR1 and PMNs | non-activators of FPR1 and PMNs | – |
| FERDISTEIYQAGNK | – | – | non-activators of FPR1 and PMNs | non-activators of FPR1 and PMNs | – |
| SKFGAISSVLNDIFS | – | – | non-activators of FPR1 and PMNs | non-activators of FPR1 and PMNs | – |
| LQDVVNHNAQALNTL | – | – | non-activators of FPR1 and PMNs | non-activators of FPR1 and PMNs | – |
| IAARDLICAQKFKGL | – | significant PMN activators | – | – | – |

| Sequence | significant FPR1 activators (group of the spike peptide pool screening) (FPR1) | significant PMN activators (group of the spike peptide pool screening) [1, 2] | non-activators of FPR1 and PMNs: FPR1 (FPR1) | non-activators of FPR1 and PMNs: PMNs [1, 2] | non-activators of FPR1 and PMNs: PMNs [1] |
| --- | --- | --- | --- | --- | --- |
| IYKTPPIKYFGGFNF | – | significant PMN activators | – | – | – |
| SFRPTYGVGHQPYRV | – | – | non-activators of FPR1 and PMNs | non-activators of FPR1 and PMNs | – |
| WNSNKLDSKVSGNYN | – | – | non-activators of FPR1 and PMNs | non-activators of FPR1 and PMNs | – |
| IFSRLDKVEAEVQID | – | – | non-activators of FPR1 and PMNs | – | non-activators of FPR1 and PMNs |
| AQKFKGLTVLPPLLT | significant FPR1 activators | – | – | – | – |
| GAEYVNNSYECDIPI | – | – | non-activators of FPR1 and PMNs | non-activators of FPR1 and PMNs | – |
| LKSYSFRPTYGVGHQ | – | – | non-activators of FPR1 and PMNs | non-activators of FPR1 and PMNs | – |
| AQALNTLVKQLSSKF | – | – | non-activators of FPR1 and PMNs | non-activators of FPR1 and PMNs | – |
| DLICAQKFKGLTVLP | – | significant PMN activators | – | – | – |
| GNIADYNYKLPDDFT | – | – | non-activators of FPR1 and PMNs | non-activators of FPR1 and PMNs | – |
| FCNDPFLDHKNNKSW | – | – | non-activators of FPR1 and PMNs | non-activators of FPR1 and PMNs | – |
| VLNDIFSRLDKVEAE | – | – | non-activators of FPR1 and PMNs | non-activators of FPR1 and PMNs | – |
| GDEVRQIAPGQTGNI | – | – | non-activators of FPR1 and PMNs | non-activators of FPR1 and PMNs | – |
| ASYQTQTKSHRRARS | – | – | non-activators of FPR1 and PMNs | non-activators of FPR1 and PMNs | – |
| VLPFNDGVYFASIEK | – | – | non-activators of FPR1 and PMNs | non-activators of FPR1 and PMNs | – |
| IIVREPEDLPQGFSA | – | – | non-activators of FPR1 and PMNs | non-activators of FPR1 and PMNs | – |
| CVIAWNSNKLDSKVS | – | – | non-activators of FPR1 and PMNs | non-activators of FPR1 and PMNs | – |
| CTQLKRALTGIAVEQ | – | – | non-activators of FPR1 and PMNs | non-activators of FPR1 and PMNs | – |
| KLDSKVSGNYNYLYR | – | – | non-activators of FPR1 and PMNs | non-activators of FPR1 and PMNs | – |
| NKCVNFNFNGLKGTG | – | – | non-activators of FPR1 and PMNs | non-activators of FPR1 and PMNs | – |
